# Values joined by “and” are separate entries in the source; they are usually repeats but may differ in a detail not shown here. Equal entries are not always repeated.
# Experiment: Biodistribution studies of the 18F tracers in rats
# Assay type: in vivo, male Wistar rats
# Conditions: rat
# Description: Biodistribution studies were carried out in healthy male Wister rats (body weight 200-500 g) at 2 min, 30 min and 60 min post injection (p.i.) (n=3/time point). For |^18F|B-4 only the 2 min and 30 min time points were studied. […] Blood and major organs were collected in tared tubes and weighed. The radioactivity in blood, organs and other body parts was measured using an automated gamma counter. The distribution of radioactivity in different parts of the body at different time points p.i. of the tracer was calculated and expressed as percentage of injected dose (% ID), and as percentage of injected dose per gram tissue (% ID/g) for the selected organs. % ID is calculated as cpm in organ/total cpm recovered. For calculation of total radioactivity in blood, blood mass was assumed to be 7% of the body mass.
smiles,measurement,setting,value
Cc1cccc(COc2ccc(-c3nn(CC[18F])cc3-c3ccncc3)cc2)n1 [[^18F]B-1],retention in the PDE10A-rich region striatum,biodistribution studies,no significant retention
same,"2 min/30 min ratios of % ID/g (normalized for body weight), all brain regions",i.v.,≥ 2.49
same,"Clearance, 2 min/30 min ratio of % ID/g (normalized for body weight), Blood",i.v.,1.65
same,"Clearance, 2 min/30 min ratio of % ID/g (normalized for body weight), Cerebellum",i.v.,4.01
same,"Clearance, 2 min/30 min ratio of % ID/g (normalized for body weight), Cerebrum total",i.v.,2.88
same,"Clearance, 2 min/30 min ratio of % ID/g (normalized for body weight), Cortex",i.v.,3.47
same,"Clearance, 2 min/30 min ratio of % ID/g (normalized for body weight), Hippocampus",i.v.,3.06
same,"Clearance, 2 min/30 min ratio of % ID/g (normalized for body weight), Rest of cerebrum",i.v.,2.86
same,"Clearance, 2 min/30 min ratio of % ID/g (normalized for body weight), Striatum",i.v.,2.49
same,"Clearance, 2 min/60 min ratio of % ID/g (normalized for body weight), Blood",i.v.,1.83
same,"Clearance, 2 min/60 min ratio of % ID/g (normalized for body weight), Cerebellum",i.v.,6.60
same,"Clearance, 2 min/60 min ratio of % ID/g (normalized for body weight), Cerebrum total",i.v.,3.60
same,"Clearance, 2 min/60 min ratio of % ID/g (normalized for body weight), Cortex",i.v.,5.55
same,"Clearance, 2 min/60 min ratio of % ID/g (normalized for body weight), Hippocampus",i.v.,3.63
same,"Clearance, 2 min/60 min ratio of % ID/g (normalized for body weight), Rest of cerebrum",i.v.,3.29
same,"Clearance, 2 min/60 min ratio of % ID/g (normalized for body weight), Striatum",i.v.,3.41
same,"% ID, Carcass","i.v., 2 min p.i.",33.12 ± 2.3 % ID
same,"% ID, Cerebellum","i.v., 2 min p.i.",0.09 % ID and 0.091 ± 0.018 % ID
same,"% ID, Cerebrum total","i.v., 2 min p.i.",0.49 % ID and 0.490 ± 0.067 % ID
same,"% ID, Cortex","i.v., 2 min p.i.",0.069 ± 0.008 % ID
same,"% ID, Heart","i.v., 2 min p.i.",0.60 ± 0.1 % ID
same,"% ID, Hippocampus","i.v., 2 min p.i.",0.018 ± 0.004 % ID
same,"% ID, Intestines","i.v., 2 min p.i.",10.79 ± 1.5 % ID
same,"% ID, Kidneys","i.v., 2 min p.i.",4.24 ± 0.5 % ID
same,"% ID, Liver","i.v., 2 min p.i.",41.94 ± 2.2 % ID
same,"% ID, Lungs","i.v., 2 min p.i.",0.92 ± 0.2 % ID
same,"% ID, Rest of cerebrum","i.v., 2 min p.i.",0.367 ± 0.054 % ID
same,"% ID, Spleen + Pancreas","i.v., 2 min p.i.",1.92 ± 0.2 % ID
same,"% ID, Stomach","i.v., 2 min p.i.",3 % ID and 3.09 ± 0.1 % ID
same,"% ID, Striatum","i.v., 2 min p.i.",0.036 ± 0.012 % ID
same,"% ID, Urine","i.v., 2 min p.i.",0.09 ± 0.1 % ID
same,"% ID/g normalized for body weight, Blood","i.v., 2 min p.i.",0.06 ± 0.01 % ID/g × body wt. in kg
same,"% ID/g normalized for body weight, Cerebellum","i.v., 2 min p.i.",0.164 ± 0.01 % ID/g × body wt. in kg
same,"% ID/g normalized for body weight, Cerebrum + Cerebellum","i.v., 2 min p.i.",0.13 ± 0.01 % ID/g × body wt. in kg
same,"% ID/g normalized for body weight, Cerebrum total","i.v., 2 min p.i.",0.120 ± 0.01 % ID/g × body wt. in kg
same,"% ID/g normalized for body weight, Cortex","i.v., 2 min p.i.",0.199 ± 0.04 % ID/g × body wt. in kg
same,"% ID/g normalized for body weight, Heart","i.v., 2 min p.i.",0.21 ± 0.02 % ID/g × body wt. in kg
same,"% ID/g normalized for body weight, Hippocampus","i.v., 2 min p.i.",0.083 ± 0.01 % ID/g × body wt. in kg
same,"% ID/g normalized for body weight, Kidneys","i.v., 2 min p.i.",0.47 ± 0.05 % ID/g × body wt. in kg
same,"% ID/g normalized for body weight, Liver","i.v., 2 min p.i.",0.92 ± 0.05 % ID/g × body wt. in kg
same,"% ID/g normalized for body weight, Lungs","i.v., 2 min p.i.",0.19 ± 0.08 % ID/g × body wt. in kg
same,"% ID/g normalized for body weight, Rest of cerebrum","i.v., 2 min p.i.",0.111 ± 0.00 % ID/g × body wt. in kg
same,"% ID/g normalized for body weight, Spleen + Pancreas","i.v., 2 min p.i.",0.40 ± 0.03 % ID/g × body wt. in kg
same,"% ID/g normalized for body weight, Striatum","i.v., 2 min p.i.",0.175 ± 0.02 % ID/g × body wt. in kg
same,"% ID/g, Blood","i.v., 2 min p.i.",0.21 ± 0.02 % ID/g
same,"% ID/g, Cerebellum","i.v., 2 min p.i.",0.607 ± 0.019 % ID/g
same,"% ID/g, Cerebrum + Cerebellum","i.v., 2 min p.i.",0.47 ± 0.03 % ID/g
same,"% ID/g, Cerebrum total","i.v., 2 min p.i.",0.444 ± 0.026 % ID/g
same,"% ID/g, Cortex","i.v., 2 min p.i.",0.734 ± 0.148 % ID/g
same,"% ID/g, Heart","i.v., 2 min p.i.",0.76 ± 0.09 % ID/g
same,"% ID/g, Hippocampus","i.v., 2 min p.i.",0.307 ± 0.041 % ID/g
same,"% ID/g, Liver","i.v., 2 min p.i.",3.40 ± 0.31 % ID/g
same,"% ID/g, Lungs","i.v., 2 min p.i.",0.69 ± 0.34 % ID/g
same,"% ID/g, Rest of cerebrum","i.v., 2 min p.i.",0.411 ± 0.023 % ID/g
same,"% ID/g, Spleen + Pancreas","i.v., 2 min p.i.",1.47 ± 0.15 % ID/g
same,"% ID/g, Striatum","i.v., 2 min p.i.",0.648 ± 0.075 % ID/g
same,striatum/blood ratio (from % ID/g normalized for body weight),"i.v., 2 min p.i.",3.10
same,striatum/cerebellum ratio (from % ID/g normalized for body weight),"i.v., 2 min p.i.",1.07
same,striatum/cortex ratio (from % ID/g normalized for body weight),"i.v., 2 min p.i.",0.88
same,striatum/hippocampus ratio (from % ID/g normalized for body weight),"i.v., 2 min p.i.",2.11
same,total initial brain uptake,"i.v., 2 min p.i.",0.59 % ID
same,"% ID, Blood","i.v., 30 min p.i.",2.40 ± 0.4 % ID
same,"% ID, Carcass","i.v., 30 min p.i.",25.50 ± 2.1 % ID
same,"% ID, Cerebellum","i.v., 30 min p.i.",0.028 ± 0.000 % ID
same,"% ID, Cerebrum total","i.v., 30 min p.i.",0.172 ± 0.012 % ID
same,"% ID, Cortex","i.v., 30 min p.i.",0.026 ± 0.004 % ID
same,"% ID, Heart","i.v., 30 min p.i.",0.21 ± 0.0 % ID
same,"% ID, Hippocampus","i.v., 30 min p.i.",0.006 ± 0.000 % ID
same,"% ID, Intestines","i.v., 30 min p.i.",14.67 ± 3.3 % ID
same,"% ID, Kidneys","i.v., 30 min p.i.",1.44 ± 0.2 % ID
same,"% ID, Liver","i.v., 30 min p.i.",45.29 ± 5.2 % ID
same,"% ID, Lungs","i.v., 30 min p.i.",0.42 ± 0.1 % ID
same,"% ID, Rest of cerebrum","i.v., 30 min p.i.",0.127 ± 0.010 % ID
same,"% ID, Spleen + Pancreas","i.v., 30 min p.i.",0.57 ± 0.2 % ID
same,"% ID, Stomach","i.v., 30 min p.i.",10 % ID and 9.73 ± 1.7 % ID
same,"% ID, Striatum","i.v., 30 min p.i.",0.013 ± 0.001 % ID
same,"% ID, Urine","i.v., 30 min p.i.",0.29 ± 0.0 % ID
same,"% ID/g normalized for body weight, Blood","i.v., 30 min p.i.",0.03 ± 0.01 % ID/g × body wt. in kg

# From patent US8852554B2, “Radiolabelled PDE10 ligands” (Janssen Pharmaceutica NV, priority 2009, dated 2014)
